In this assay the target is T1, Angiotensin II receptor (AT-1) type-1 (Rattus norvegicus, UniProt P29089+P25095).
T1 sequence (P29089 whole entry): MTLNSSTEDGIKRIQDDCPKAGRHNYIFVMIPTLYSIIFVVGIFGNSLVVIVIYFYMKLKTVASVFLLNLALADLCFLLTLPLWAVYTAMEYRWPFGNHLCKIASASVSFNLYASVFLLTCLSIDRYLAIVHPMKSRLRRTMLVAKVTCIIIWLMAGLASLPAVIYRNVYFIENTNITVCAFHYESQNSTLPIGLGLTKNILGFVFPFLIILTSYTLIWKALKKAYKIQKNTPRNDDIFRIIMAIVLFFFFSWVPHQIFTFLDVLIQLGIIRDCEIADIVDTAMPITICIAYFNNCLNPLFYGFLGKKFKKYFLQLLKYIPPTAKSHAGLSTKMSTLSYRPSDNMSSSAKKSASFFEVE
T1 sequence (P25095 whole entry): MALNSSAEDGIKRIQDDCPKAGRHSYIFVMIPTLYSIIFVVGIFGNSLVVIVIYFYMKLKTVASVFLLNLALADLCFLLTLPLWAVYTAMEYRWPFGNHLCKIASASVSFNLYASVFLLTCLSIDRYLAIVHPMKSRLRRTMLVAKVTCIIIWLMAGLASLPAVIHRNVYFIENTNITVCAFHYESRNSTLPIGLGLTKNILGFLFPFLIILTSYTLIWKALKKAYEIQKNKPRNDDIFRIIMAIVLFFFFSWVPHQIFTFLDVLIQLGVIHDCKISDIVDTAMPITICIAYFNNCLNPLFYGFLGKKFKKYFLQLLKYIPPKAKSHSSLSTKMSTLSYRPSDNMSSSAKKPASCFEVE
The assay can be described thus: Inhibitory concentration that gives 50% displacement of specific binding at labeled angiotensin II type 1 receptor in rat adrenal cortical membranes. The class given is cell membranes, Membrane.

Regarding `CCCCc1nc(Cl)c(CC(=O)O)n1Cc1ccc(CC(=O)O)cc1`, the IC50 was 13000 nM.
`CCCCc1nc(Cl)c(COC)n1Cc1ccc(NC(=O)Cc2ccccc2CC(=O)O)cc1` showed an IC50 of 2800 nM.
The compound `CCCCc1nc(Cl)c(CC(=O)OC)n1Cc1ccc(NC(=O)c2ccccc2NS(=O)(=O)C(F)(F)F)cc1` displayed an IC50 of 500 nM.

The record behind these values is ChEMBL document CHEMBL1145976, “Non-peptide angiotensin II receptor antagonists: chemical feature based pharmacophore identification” (J Med Chem, 2003).
